Assay results reported in patent US20150004134A1, “TREATMENT OF CANCER WITH HETEROCYCLIC INHIBITORS OF GLUTAMINASE” (Calithera Biosciences, Inc., priority 2012, published 2015).

Each compound was assayed on P493-6 (myc "on") cells (assay: Cell Proliferation Assay). Details: P493-6, 72 h, read-out: Cell prolif P493 72 h IC50, P493-6 cells, 72 h.
Type: cell-based
Method in brief: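 Read-out: either Cell Titer Glo or Guava Viacount flow analysis after 72 h compound treatment of myc-on P493-6 cells (10,000/well, RPMI with 10% FBS) at 37 °C. DMSO held at 0.5% final.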

SMILES | IC50 [nM]
CC(C(=O)Nc1ccc(CCCCc2nnc(NC(=O)C(C)c3ccccc3)s2)nn1)c1ccccc1 (centres unmarked) [Compound 613] | 450
CS(=O)(=O)CCCOc1cccc(CC(=O)Nc2ccc(CCCCc3nnc(NC(=O)Cc4ccccc4)s3)nn2)c1 [Compound 623] | 26
CC(C)(C)OC(=O)NCc1cccc(CC(=O)Nc2ccc(CCCCc3nnc(NC(=O)Cc4cccc(CNC(=O)OC(C)(C)C)c4)s3)nn2)c1 [Compound 571] | 10
COC(C(=O)Nc1ccc(CCCCc2nnc(NC(=O)Cc3cccc(CNC(=O)OC(C)(C)C)c3)s2)nn1)c1ccccc1 (centres unmarked) [Compound 508] | 20
O=C(Cc1ccccc1)Nc1ccc(CCCCc2nnc(NC(=O)Cc3cccc(OCc4ccccn4)c3)s2)nn1 [Compound 480] | 6300
CC(C(=O)Nc1nnc(CCCCc2ccc(NC(=O)Cc3cccc(CNC(=O)OCCF)c3)nn2)s1)c1ccccc1 (centres unmarked) [Compound 591] | 33
CC(=O)Nc1ccc(CCCCc2nnc(NC(=O)Cc3cccc(CNC(=O)CC(C)C)c3)s2)nn1 [Compound 461] | 62
COc1cc(CC(=O)Nc2nnc(CCCCc3ccc(NC(=O)Cc4ccccc4)nn3)s2)ccc1F [Compound 515] | 59
CC(C)(C)OC(=O)NCc1cccc(CC(=O)Nc2nnc(CCCCc3ccc(NC(=O)C(O)(CO)c4ccccc4)nn3)s2)c1 (centres unmarked) [Compound 507] | 41
CC(NC(=O)OC(C)(C)C)c1cc(CC(=O)Nc2ccc(CCCCc3nnc(NC(=O)Cc4ccccc4)s3)nn2)ccc1F (centres unmarked) [Compound 654] | 7
O=C(Cc1ccccc1F)Nc1ccc(CCCCc2nnc(NC(=O)Cc3ccccc3Cl)s2)nn1 [Compound 566] | 15
O=C(Cc1ccccc1)Nc1ccc(CCCCc2nnc(NC(=O)Cc3cccc4[nH]ncc34)s2)nn1 [Compound 512] | 46
CC(C)NC(=O)OC(C)c1cccc(CC(=O)Nc2nnc(CCCCc3ccc(NC(=O)Cc4ccccc4)nn3)s2)c1 (centres unmarked) [Compound 598] | 4
CC(C)(C)OC(=O)NCc1cccc(CC(=O)Nc2nnc(CCCCc3ccc(NC(=O)C(O)c4cccc(Cl)c4)nn3)s2)c1 (centres unmarked) [Compound 422] | 6
CC(C)(C)OC(=O)NCc1ccccc1CC(=O)Nc1nnc(CCCCc2ccc(NC(=O)Cc3ccccc3)nn2)s1 [Compound 464] | 59

Same assay, conditions: P493-6, 72 h, read-out: Cell prolif P493 72 h IC50, P493 cells, 72 h

SMILES | IC50 [nM]
O=C(Nc1nnc(CCCCc2nnc(NC(=O)[C@H](O)c3ccccc3)s2)s1)[C@H](O)c1ccccc1 [Compound 80] | 1300
CC(=O)OCC(C(=O)Nc1nnc(CCSCCc2nnc(NC(=O)C(COC(C)=O)c3ccccc3)s2)s1)c1ccccc1 (centres unmarked) [Compound 14] | 1800
O=C(Cc1ccccc1)Nc1nnc(CCCc2nnc(NC(=O)Cc3ccccc3)s2)s1 [Compound 72, N,N′-[5,5′-(propane-1,3-diyl)-bis(1,3,4-thiadiazole-5,2-diyl)]-bis(2-phenylacetamide)] | 470
COc1ccc(CC(=O)Nc2nnc(CCSCCc3nnc(NC(=O)Cc4ccc(OC)cc4)s3)s2)cc1 [Compound 161] | 1400
CC(C)(C)OC(=O)N1CCC(CC(=O)Nc2nnc(CCSCCc3nnc(NC(=O)CC4CCN(C(=O)OC(C)(C)C)CC4)s3)s2)CC1 [Compound 111] | 880
CC(C)(C)OC(=O)N1CCN(C(C(=O)Nc2nnc(CCSCCc3nnc(NC(=O)Cc4ccccc4)s3)s2)c2ccccc2)CC1 (centres unmarked) [Compound 70] | 3400
O=C(Cc1ccccc1)Nc1nnc(CCCCc2nnc(NC(=O)Cc3cccc(Cn4cccn4)c3)s2)s1 [Compound 392] | 72
O=C(Cc1cccc(F)c1)Nc1nnc(CCSCCc2nnc(NC(=O)Cc3cccc(F)c3)s2)s1 [Compound 102] | 1400
O=C(Nc1nnc(CCCCc2nnc(NC(=O)C3COc4ccccc43)s2)s1)C1COc2ccccc21 (centres unmarked) [Compound 135] | 490
O=C(Nc1nnc(CCSCCc2nnc(NC(=O)C3CCOC3)s2)s1)C1CCOC1 (centres unmarked) [Compound 95] | 45000
CC(=O)NCC(C(=O)Nc1nnc(CCCCc2nnc(NC(=O)C(CNC(C)=O)c3ccccc3)s2)s1)c1ccccc1 (centres unmarked) [Compound 266] | > 50000
O=C(Nc1nnc(CCCCc2nnc(NC(=O)C(O)c3cccc(F)c3F)s2)s1)C(O)c1cccc(F)c1F (centres unmarked) [Compound 211] | 1000
COc1ccccc1CC(=O)Nc1nnc(CCSCCc2nnc(NC(=O)Cc3ccccc3OC)s2)s1 [Compound 219] | 570
O=C(Nc1nnc(CCCCc2nnc(NC(=O)C(O)c3cccc(Cl)c3)s2)s1)C(O)c1cccc(Cl)c1 (centres unmarked) [Compound 306] | 66
O=C(CC1CCNCC1)Nc1nnc(CCSCCc2nnc(NC(=O)CC3CCNCC3)s2)s1 [Compound 129] | > 50000
O=C(Cc1ccccc1)Nc1nnc(CCSCc2nnc(NC(=O)Cc3ccccn3)s2)s1 [Compound 373] | 280
COc1cccc(C(CO)C(=O)Nc2nnc(CCSCc3nnc(NC(=O)C(CO)c4cccc(OC)c4)s3)s2)c1 (centres unmarked) [Compound 258] | 180
N[C@H](C(=O)Nc1nnc(CCSCCc2nnc(NC(=O)[C@@H](N)c3ccccc3)s2)s1)c1ccccc1 [Compound 175] | 23000

SMILES | IC50 [nM]
CC(C)COC(=O)Nc1nnc(CCCCc2nnc(NC(=O)Cc3ccccc3)s2)s1 [Compound 370] | 700
CC(C)(C)OC(=O)N1CCCC(CC(=O)Nc2nnc(CCSCCc3nnc(NC(=O)CC4CCCN(C(=O)OC(C)(C)C)C4)s3)s2)C1 (centres unmarked) [Compound 112] | 890
O=C(Nc1nnc(CCCCc2nnc(NC(=O)C3COc4ccccc4O3)s2)s1)C1COc2ccccc2O1 (centres unmarked) [Compound 52] | 30000
CC(=O)OC(C(=O)Nc1nnc(CCCCc2nnc(NC(=O)C(OC(C)=O)c3ccccc3)s2)s1)c1ccccc1 (centres unmarked) [Compound 173] | 760
O=C(Nc1nnc(CCCCc2nnc(NC(=O)[C@@H](O)Cc3ccccc3)s2)s1)[C@@H](O)Cc1ccccc1 [Compound 146] | 460
CS(=O)(=O)c1ccc(CC(=O)Nc2nnc(CCSCCc3nnc(NC(=O)Cc4ccc(S(C)(=O)=O)cc4)s3)s2)cc1 [Compound 182] | > 50000
O=C(COc1ccccc1)Nc1nnc(CCCCc2nnc(NC(=O)COc3ccccc3)s2)s1 [Compound 43] | > 50000
O=C(Nc1nnc(CCCCc2nnc(NC(=O)C(O)Cc3ccccc3)s2)s1)C(O)Cc1ccccc1 (centres unmarked) [Compound 69] | 330
COc1ccccc1CC(=O)Nc1nnc(CCCCc2nnc(NC(=O)Cc3ccccc3OC)s2)s1 [Compound 264] | 10
O=C(Cc1cccc2[nH]ccc12)Nc1nnc(CCCCc2nnc(NC(=O)Cc3cccc4[nH]ccc34)s2)s1 [Compound 323] | 200
CC(CCc1nnc(NC(=O)Cc2ccccc2)s1)Cc1nnc(NC(=O)Cc2ccccc2)s1 (centres unmarked) [Compound 44] | 2600
O=C(Nc1nnc(CCSCCc2nnc(NC(=O)C3Oc4ccccc4O3)s2)s1)C1Oc2ccccc2O1 [Compound 134] | 28000
COC(=O)c1cccc(NC(=O)Nc2nnc(CCSCCc3nnc(NC(=O)Nc4cccc(C(=O)OC)c4)s3)s2)c1 [Compound 31] | 4300
O=C(Cc1cccc(OCCN2CCOCC2)c1)Nc1nnc(CCSCc2nnc(NC(=O)Cc3cccc(OCCN4CCOCC4)c3)s2)s1 [Compound 267] | 640
N[C@@H](C(=O)Nc1nnc(CCCCc2nnc(NC(=O)[C@H](N)c3ccccc3)s2)s1)c1ccccc1 [Compound 186] | 13000
Cc1cccc(CC(=O)Nc2nnc(CCSCCc3nnc(NC(=O)Cc4cccc(C)c4)s3)s2)c1 [Compound 247] | 830
COC(=O)C(CC(=O)Nc1nnc(CCCCc2nnc(NC(=O)CC(C(=O)O)c3ccccc3)s2)s1)c1ccccc1 (centres unmarked) [Compound 178] | > 50000
